Reference: patent US20140080907A1, “LIVER REGENERATION ACCELERATOR COMPRISING BETAINE” (SNU R&DB FOUNDATION, priority 2009, published 2014)
Marks after values point to notes of the source that are not given here.

What was measured:
resected liver = assay: Liver weight increase in the rat after 2/3 partial hepatectomy or sham laparotomy; type: in vivo, Male Sprague Dawley rats
Method: Male Sprague Dawley rats were purchased from Central Lab. Animal Inc., Korea. Test animals were adapted to an animal facility where temperature was maintained at 22±2° C., humidity at 55±5%, and artificial illumination was provided for 12 hours a day, at least for a week before being used in the experiment. The rats weighed 230-260 g at the time when partial hepatectomy was performed. Filtered tap water and solid regular rat chow were provided freely. For the animal group that was supposed to be treated with betaine, betaine purchased from Sigma, USA, was dissolved in filtered tap water at the concentration of 1% and provided to the group as drinking water. Betaine was administered after partial hepatectomy was conducted. In some experiments, betaine containing drinking water was provided to the animal group from 2 weeks before partial hepatectomy to increase the effect of betaine. Partial hepatectomy was performed according to the method originally introduced by Higgins and Anderson (Arch Path, 12; 186, 1931). The rat was anesthetized lightly with ether, and then the middle line of abdomen was incised approximately 3 cm. First, the skin was cut and then abdominal muscle was incised carefully not to damage internal organs. The incised upper part was lifted up by using a pincette to cut the connective tissues connected with diaphragm supporting liver tissue using scissors. Light pressure was applied to the surrounding area of the incision line to expose median lobe and left lateral lobe taking about 70 volume % of the total hepatic lobes. Connective tissues of each hepatic lobe were carefully removed and tied with suture to close the blood vessel, followed by elimination of the exposed hepatic lobe. Muscles and skin of the incised area were stitched up with suture. The incised area was sterilized with 70% ethyl alcohol to prevent infection. For the control group, abdominal incision was simply performed and then stitched up (Sham). Male rats were randomly divided into 4 groups of 4 rats each. Group 1, the control group, had laparotomy alone without damaging internal organs and then the opening was sealed (Sham group). Group 2 was treated with betaine after laparotomy (Sham+Betaine group). Group 3 had two-thirds (⅔) partial hepatectomy (PH group), and Group 4 was treated with betaine after ⅔ partial hepatectomy (PH+Betaine group). For the administration of betaine to the groups that had laparotomy only or partial hepatectomy, 1% betaine solution was provided as drinking water. For other groups, filtered tap water was provided as drinking water. In Table 1, the values on day 0 indicate the relative liver weight (liver/weight percentage) in the normal rats not having the surgery. Each group was composed of 4 rats except that 8 rats were used for the calculation for day 0 values. Value is mean±standard deviation. * Statistically significant difference between the group treated with betaine and the group without betaine treatment (Student's t-test, P<0.05). […] SH: Sham, PH: Partial hepatectomy. The number in parenthesis indicates % to the SH group.

[1] = Serum hepatotoxic parameters (AST, ALT) in rats after hepatectomy; type: in vivo, Male Sprague Dawley rats; conditions: for ALT / AST: serum, end of experiment
Method: (§1) Male Sprague Dawley rats were purchased from Central Lab. Animal Inc., Korea. Test animals were adapted to an animal facility where temperature was maintained at 22±2° C., humidity at 55±5%, and artificial illumination was provided for 12 hours a day, at least for a week before being used in the experiment. The rats weighed 230-260 g at the time when partial hepatectomy was performed. Filtered tap water and solid regular rat chow were provided freely. For the animal group that was supposed to be treated with betaine, betaine purchased from Sigma, USA, was dissolved in filtered tap water at the concentration of 1% and provided to the group as drinking water. Betaine was administered after partial hepatectomy was conducted. In some experiments, betaine containing drinking water was provided to the animal group from 2 weeks before partial hepatectomy to increase the effect of betaine.
(§2) Partial hepatectomy was performed according to the method originally introduced by Higgins and Anderson (Arch Path, 12; 186, 1931). The rat was anesthetized lightly with ether, and then the middle line of abdomen was incised approximately 3 cm. First, the skin was cut and then abdominal muscle was incised carefully not to damage internal organs. The incised upper part was lifted up by using a pincette to cut the connective tissues connected with diaphragm supporting liver tissue using scissors. Light pressure was applied to the surrounding area of the incision line to expose median lobe and left lateral lobe taking about 70 volume % of the total hepatic lobes. Connective tissues of each hepatic lobe were carefully removed and tied with suture to close the blood vessel, followed by elimination of the exposed hepatic lobe. Muscles and skin of the incised area were stitched up with suture. The incised area was sterilized with 70% ethyl alcohol to prevent infection. For the control group, abdominal incision was simply performed and then stitched up (Sham).
Alanine aminotransferase (ALT) activity and aspartate aminotransferase (AST) activity were measured by the method of Reitman and Frankel (Amer J Clin Pathol 28; 56, 1957) using spectrophotometer. ALT, AST substrate solutions and an aliquot of serum were added to a test tube, followed by incubation at 37° C. Upon completion of the reaction, the color developing agent and 0.4 N NaOH were added thereto, followed by measurement of absorptivities at 520 nm. The activity of each enzyme was calculated based on the standard calibration curve generated by using pyruvate as a substrate.
Male rats were randomly divided into 4 groups of 4 rats each. Group 1, the control group, had laparotomy alone without damaging internal organs and then the opening was sealed (Sham group). Group 2 was treated with betaine after laparotomy (Sham+Betaine group). Group 3 had two-thirds (⅔) partial hepatectomy (PH group), and Group 4 was treated with betaine after ⅔ partial hepatectomy (PH+Betaine group). For the administration of betaine to the groups that had laparotomy only or partial hepatectomy, 1% betaine solution was provided as drinking water. For other groups, filtered tap water was provided as drinking water.
At the end of the experiment, hepatotoxic parameters in serum were measured.
In Table 2, each group was composed of 4 rats. Value is mean±standard deviation. Statistically significant difference was not shown between different groups (Oneway ANOVA followed by Neuman Keul Multiple range test, P>0.05).

[2] = tested on: PCNA (proliferating cell nuclear antigen); assay: PCNA expression in liver after partial hepatectomy (Western blotting); type: in vivo, rat; conditions: for PCNA expression, increase compared with tap water group: 1% betaine from 2 weeks before hepatectomy; for PCNA expression compared with tap water group: 1% betaine in drinking water after hepatectomy
Method: as §1, §2
(§3) Cytosolic fraction was prepared from the excised liver using the standard method. The protein of cytosol was separated by SDS-PAGE, followed by electroblotting, and then transferred to nitrocellulose membrane. The membrane was treated with PBS-T buffer containing 5% nonfat milk at 4° C. for overnight. The nitrocellulose membrane was reacted with the primary antibody diluted with 5% bovine serum albumin. The primary antibodies used herein were mouse monoclonal anti-cyclin D1 serum (Santa Cruz Biotechnology, CA, U.S.A.) and rabbit polyclonal anti-human PCNA (Santa Cruz Biotechnology, CA, U.S.A.). After washing twice with PBS-T, the membrane was treated with the secondary antibody horseradish peroxidase-conjugated goat anti-rabbit IgG (Pierce Biotechnology, Rockford, Ill., U.S.A.). […]

cyclin D1 = assay: Cyclin D1 expression in liver after partial hepatectomy (Western blotting); type: in vivo, rat
Method: as §1, §2, §3

[3] = 2/3 partial hepatectomy + 1% betaine in drinking water after surgery, day 7
[4] = Sham + 1% betaine in drinking water
[5] = partial hepatectomy + 1% betaine in drinking water

C[N+](C)(C)CC(=O)[O-] [Betaine, trimethylglycine]
relative liver weight (liver/weight percentage) (resected liver; 2/3 partial hepatectomy + 1% betaine in drinking water after surgery, day 1): 1.47 ± 0.05%
relative liver weight (liver/weight percentage) (resected liver; 2/3 partial hepatectomy + 1% betaine in drinking water after surgery, day 2): 1.98 ± 0.05* %
relative liver weight (liver/weight percentage) (resected liver; [3]): 3.17 ± 0.06*, a %
relative liver weight, % to the SH group (resected liver; [3]): (94%)
relative liver weight, % to the SH group (resected liver; 2/3 partial hepatectomy + 1% betaine in drinking water after surgery, day 7, listed as betaine): 94%
relative liver weight (liver/weight percentage) (resected liver; Sham (laparotomy only) + 1% betaine in drinking water, day 7): 3.30 ± 0.10a %
relative liver weight (liver/weight percentage) (resected liver; Sham (laparotomy only) + 1% betaine in drinking water, day 7, listed as betaine): did not affect the relative liver weight
relative liver weight, % to the SH group (resected liver; Sham + 1% betaine in drinking water, day 7): (98%)
effect on serum AST and ALT activities ([1]; 1% betaine in drinking water, sham or hepatectomized rats): did not affect serum AST and ALT activities
ALT [1, 4]: 22 ± 2 units/ml
AST [1, 4]: 83 ± 3 units/ml
ALT [1, 5]: 27 ± 2 units/ml
AST [1, 5]: 78 ± 11 units/ml
PCNA expression, increase compared with tap water group ([2]; 24 hours after hepatectomy (FIG. 1b)): 190%
PCNA expression, increase compared with tap water group ([2]; 48 hours after hepatectomy (FIG. 1b)): 150%
PCNA expression compared with tap water group ([2]; 24 hours (FIG. 1a)): significantly increased
PCNA expression compared with tap water group ([2]; 48 hours (FIG. 1a)): significantly increased
cyclin D1 expression, higher than tap water group (cyclin D1; betaine from 2 weeks before hepatectomy, 12th hour after hepatectomy (FIG. 2)): 50%
cyclin D1 expression compared with tap water group (cyclin D1; betaine from 2 weeks before hepatectomy, 24 hours after hepatectomy (FIG. 2)): remained elevated
cyclin D1 expression compared with tap water group (cyclin D1; betaine from 2 weeks before hepatectomy, 48 hours after hepatectomy (FIG. 2)): difference between the two groups disappeared
cyclin D1 expression compared with tap water group (cyclin D1; normal rats without hepatectomy, betaine in drinking water, 0 hour (FIG. 2)): no significant difference
